Experiments:
Assay type in all cases: functional
SF-268 = experiment: Growth inhibition of human SF268 cells assessed as cell growth at 5X10'-9 M after 48 hrs by sulforhodamine B assay; settings: SF-268, 48 h, read-out: Activity
HCT-15 [1] = experiment: Growth inhibition of human HCT15 cells assessed as cell growth at 5X10'-9 M after 48 hrs by sulforhodamine B assay; settings: HCT-15, 48 h, read-out: Activity
MDA-MB-435 = experiment: Growth inhibition of human MDA-MB-435 cells assessed as cell growth at 5X10'-5 M after 48 hrs by sulforhodamine B assay; settings: MDA-MB-435, 48 h, read-out: Activity
KM12 = experiment: Growth inhibition of human KM12 cells assessed as cell growth at 5X10'-5 M after 48 hrs by sulforhodamine B assay; settings: KM12, 48 h, read-out: Activity
NCI-H23 = experiment: Growth inhibition of human NCI-H23 cells assessed as cell growth at 5X10'-5 M after 48 hrs by sulforhodamine B assay; settings: NCI-H23, 48 h, read-out: Activity
MOLT-4 = experiment: Growth inhibition of human MOLT4 cells assessed as cell growth at 5X10'-5 M after 48 hrs by sulforhodamine B assay; settings: MOLT-4, 48 h, read-out: Activity
K562 = experiment: Growth inhibition of human K562 cells assessed as cell growth at 5X10'-5 M after 48 hrs by sulforhodamine B assay; settings: K562, 48 h, read-out: Activity
MDA-MB-231 = experiment: Growth inhibition of human MDA-MB-231 cells assessed as cell growth at 5X10'-6 M after 48 hrs by sulforhodamine B assay; settings: MDA-MB-231, 48 h, read-out: Activity
SN12C [2] = experiment: Growth inhibition of human SN12C cells assessed as cell growth at 5X10'-6 M after 48 hrs by sulforhodamine B assay; settings: read-out: Activity
SK-MEL-2 [3] = experiment: Growth inhibition of human SK-MEL-2 cells assessed as cell growth at 5X10'-6 M after 48 hrs by sulforhodamine B assay; settings: SK-MEL-2, 48 h, read-out: Activity
Malme-3M = experiment: Growth inhibition of human MALME-3M cells assessed as cell growth at 5X10'-6 M after 48 hrs by sulforhodamine B assay; settings: read-out: Activity
HT-29 [4] = experiment: Growth inhibition of human HT-29 cells assessed as cell growth at 5X10'-6 M after 48 hrs by sulforhodamine B assay; settings: HT-29, 48 h, read-out: Activity
HCT-15 [5] = experiment: Growth inhibition of human HCT15 cells assessed as cell growth at 5X10'-6 M after 48 hrs by sulforhodamine B assay; settings: HCT-15, 48 h, read-out: Activity
[6] = Growth inhibition of human HCC2998 cells assessed as cell growth at 5X10'-6 M after 48 hrs by sulforhodamine B assay; settings: HCC 2998, 48 h, read-out: Activity
COLO 205 = experiment: Growth inhibition of human COLO205 cells assessed as cell growth at 5X10'-6 M after 48 hrs by sulforhodamine B assay; settings: COLO 205, 48 h, read-out: Activity
A549 = experiment: Growth inhibition of human A549/ATCC cells assessed as cell growth at 5X10'-6 M after 48 hrs by sulforhodamine B assay; settings: A549, 48 h, read-out: Activity
RPMI-8226 = experiment: Growth inhibition of human RPMI8226 cells assessed as cell growth at 5X10'-6 M after 48 hrs by sulforhodamine B assay; settings: RPMI-8226, 48 h, read-out: Activity
SN12C [7] = experiment: Growth inhibition of human SN12C cells assessed as cell growth at 5X10'-7 M after 48 hrs by sulforhodamine B assay; settings: read-out: Activity
RXF 393 = experiment: Growth inhibition of human RXF393 cells assessed as cell growth at 5X10'-7 M after 48 hrs by sulforhodamine B assay; settings: RXF 393, 48 h, read-out: Activity
UACC-62 [8] = experiment: Growth inhibition of human UACC62 cells assessed as cell growth at 5X10'-7 M after 48 hrs by sulforhodamine B assay; settings: UACC-62, 48 h, read-out: Activity
SF-295 = experiment: Growth inhibition of human SF295 cells assessed as cell growth at 5X10'-7 M after 48 hrs by sulforhodamine B assay; settings: SF-295, 48 h, read-out: Activity
SW-620 = experiment: Growth inhibition of human SW620 cells assessed as cell growth at 5X10'-7 M after 48 hrs by sulforhodamine B assay; settings: SW-620, 48 h, read-out: Activity
HT-29 [9] = experiment: Growth inhibition of human HT-29 cells assessed as cell growth at 5X10'-7 M after 48 hrs by sulforhodamine B assay; settings: HT-29, 48 h, read-out: Activity
HCT-116 = experiment: Growth inhibition of human HCT116 cells assessed as cell growth at 5X10'-7 M after 48 hrs by sulforhodamine B assay; settings: HCT-116, 48 h, read-out: Activity
NCI-H522 = experiment: Growth inhibition of human NCI-H522 cells assessed as cell growth at 5X10'-7 M after 48 hrs by sulforhodamine B assay; settings: NCI-H522, 48 h, read-out: Activity
SR = experiment: Growth inhibition of human SR cells assessed as cell growth at 5X10'-7 M after 48 hrs by sulforhodamine B assay; settings: read-out: Activity
BT-549 = experiment: Growth inhibition of human BT549 cells assessed as cell growth at 5X10'-8 M after 48 hrs by sulforhodamine B assay; settings: BT-549, 48 h, read-out: Activity
[10] = Growth inhibition of human NCI-ADR-RES cells assessed as cell growth at 5X10'-8 M after 48 hrs by sulforhodamine B assay; settings: read-out: Activity
OVCAR-5 = experiment: Growth inhibition of human OVCAR5 cells assessed as cell growth at 5X10'-8 M after 48 hrs by sulforhodamine B assay; settings: OVCAR-5, 48 h, read-out: Activity
OVCAR-4 = experiment: Growth inhibition of human OVCAR4 cells assessed as cell growth at 5X10'-8 M after 48 hrs by sulforhodamine B assay; settings: OVCAR-4, 48 h, read-out: Activity
MDA-MB-468 = experiment: Growth inhibition of human MDA-MB-468 cells assessed as cell growth at 5X10'-5 M after 48 hrs by sulforhodamine B assay; settings: MDA-MB-468, 48 h, read-out: Activity
UACC-62 [11] = experiment: Growth inhibition of human UACC62 cells assessed as cell growth at 5X10'-5 M after 48 hrs by sulforhodamine B assay; settings: UACC-62, 48 h, read-out: Activity
SK-MEL-2 [12] = experiment: Growth inhibition of human SK-MEL-2 cells assessed as cell growth at 5X10'-5 M after 48 hrs by sulforhodamine B assay; settings: SK-MEL-2, 48 h, read-out: Activity
PC-3 = experiment: Growth inhibition of human PC3 cells assessed as cell growth at 5X10'-9 M after 48 hrs by sulforhodamine B assay; settings: PC-3, 48 h, read-out: Activity
SF-539 = experiment: Growth inhibition of human SF539 cells assessed as cell growth at 5X10'-9 M after 48 hrs by sulforhodamine B assay; settings: SF-539, 48 h, read-out: Activity
SNB-19 = experiment: Growth inhibition of human SNB19 cells assessed as cell growth at 5X10'-9 M after 48 hrs by sulforhodamine B assay; settings: SNB-19, 48 h, read-out: Activity

Compound | growth at 0.005 µM (SF-268) [%] | growth at 0.005 µM (HCT-15 [1]) [%] | growth at 50 µM (MDA-MB-435) [%] | growth at 50 µM (KM12) [%] | growth at 50 µM (NCI-H23) [%] | growth at 50 µM (MOLT-4) [%] | growth at 50 µM (K562) [%] | growth at 5 µM (MDA-MB-231) [%] | growth at 5 µM (SN12C [2]) [%] | growth at 5 µM (SK-MEL-2 [3]) [%] | growth at 5 µM (Malme-3M) [%] | growth at 5 µM (HT-29 [4]) [%] | growth at 5 µM (HCT-15 [5]) [%] | growth at 5 µM [6] [%] | growth at 5 µM (COLO 205) [%] | growth at 5 µM (A549) [%] | growth at 5 µM (RPMI-8226) [%] | growth at 0.5 µM (SN12C [7]) [%] | growth at 0.5 µM (RXF 393) [%] | growth at 0.5 µM (UACC-62 [8]) [%] | also measured
COc1cc(-c2nn(-c3cccc(NC(=O)c4cccc(C(F)(F)F)c4)c3)cc2-c2ccncc2)ccc1Cl | 94 | 98 | -37 | 7 | -3 | 16 | 7 | 9 | 41 | 8 | 21 | 5 | 15 | 21 | 1 | 19 | 12 | 92 | 68 | 83 | growth at 0.5 µM (SF-295): 83%; growth at 0.5 µM (SW-620): 89%; growth at 0.5 µM (HT-29 [9]): 86%; growth at 0.5 µM (HCT-116): 92%; growth at 0.5 µM (NCI-H522): 79%; growth at 0.5 µM (SR): 65%; growth at 0.05 µM (BT-549): 98%; growth at 0.05 µM [10]: 96%; growth at 0.05 µM (OVCAR-5): 90%; growth at 0.05 µM (OVCAR-4): 98%; growth at 50 µM (MDA-MB-468): -32%; growth at 50 µM (UACC-62 [11]): 13%; growth at 50 µM (SK-MEL-2 [12]): 6%; growth at 0.005 µM (PC-3): 98%; growth at 0.005 µM (SF-539): 95%; growth at 0.005 µM (SNB-19): 100%
COc1cc(-c2nn(-c3cccc(NC(=O)Nc4cccc(C(F)(F)F)c4)c3)cc2-c2ccncc2)ccc1Cl | 97 | 100 | -63 | -47 | -37 | -17 | 1 | -35 | 12 | -67 | -44 | -54 | 1 | -23 | -78 | 3 | -10 | 80 | 74 | 74 | growth at 0.5 µM (SF-295): 39%; growth at 0.5 µM (SW-620): 79%; growth at 0.5 µM (HT-29 [9]): 72%; growth at 0.5 µM (HCT-116): 66%; growth at 0.5 µM (NCI-H522): 65%; growth at 0.5 µM (SR): 75%; growth at 0.05 µM (BT-549): 96%; growth at 0.05 µM [10]: 97%; growth at 0.05 µM (OVCAR-5): 86%; growth at 0.05 µM (OVCAR-4): 96%; growth at 50 µM (MDA-MB-468): -44%; growth at 50 µM (UACC-62 [11]): -87%; growth at 50 µM (SK-MEL-2 [12]): -85%; growth at 0.005 µM (PC-3): 92%; growth at 0.005 µM (SF-539): 95%; growth at 0.005 µM (SNB-19): 96%
O=C(Nc1cccc(-n2cc(-c3ccncc3)c(-c3ccc(Cl)c(O)c3)n2)c1)c1ccc(N2CCOCC2)c(C(F)(F)F)c1 | 90 | 94 | 1 | 1 | -13 | -5 | 3 | 8 | 70 | 34 | -9 | 79 | 18 | 53 | 87 | 39 | 9 | 97 | 57 | 97 | growth at 0.5 µM (SF-295): 93%; growth at 0.5 µM (SW-620): 106%; growth at 0.5 µM (HT-29 [9]): 102%; growth at 0.5 µM (HCT-116): 99%; growth at 0.5 µM (NCI-H522): 92%; growth at 0.5 µM (SR): 84%; growth at 0.05 µM (BT-549): 101%; growth at 0.05 µM [10]: 98%; growth at 0.05 µM (OVCAR-5): 97%; growth at 0.05 µM (OVCAR-4): 100%; growth at 50 µM (MDA-MB-468): -24%; growth at 50 µM (UACC-62 [11]): -30%; growth at 50 µM (SK-MEL-2 [12]): -36%; growth at 0.005 µM (PC-3): 100%; growth at 0.005 µM (SF-539): 92%; growth at 0.005 µM (SNB-19): 97%
